Experimental data taken from ChEMBL document CHEMBL6114972, “Proteolysis targeting chimera of BI-2536 induces potent dual degradation of PLK1 and BET proteins” (Bioorg Med Chem, 2025).
Active and inactive are the calls of the source. The calls are words filed in the database; no cut-off is given here.

How the values were obtained:
[1] = molecular target: T1, Protein cereblon/Bromodomain-containing protein 4 (Homo sapiens, UniProt O60885+Q96SW2); test: Protac activity at CRBN/BRD4 in human HeLa cells assessed as BRD4 degradation measured after 36 hrs by Western blot analysis relative to control; format: cell-based
T1 sequence (Q96SW2 whole entry, looked up, other chains not shown): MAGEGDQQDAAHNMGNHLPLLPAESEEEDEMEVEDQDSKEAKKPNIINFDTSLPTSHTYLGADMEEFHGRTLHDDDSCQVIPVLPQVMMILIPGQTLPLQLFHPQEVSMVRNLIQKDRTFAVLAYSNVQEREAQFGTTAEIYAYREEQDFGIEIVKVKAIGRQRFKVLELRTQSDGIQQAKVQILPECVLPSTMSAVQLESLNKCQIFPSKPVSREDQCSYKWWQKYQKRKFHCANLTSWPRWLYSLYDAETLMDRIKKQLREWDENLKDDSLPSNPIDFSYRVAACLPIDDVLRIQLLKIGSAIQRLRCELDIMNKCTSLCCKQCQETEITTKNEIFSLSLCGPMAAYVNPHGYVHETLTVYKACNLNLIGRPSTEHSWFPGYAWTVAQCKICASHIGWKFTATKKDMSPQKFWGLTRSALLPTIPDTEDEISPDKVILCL

[2] = molecular target: T1, Protein cereblon/Bromodomain-containing protein 4; test: Protac activity at CRBN/BRD4 in human HeLa cells assessed as BRD4 degradation at 10 nM measured after 36 hrs by Western blot analysis; format: cell-based
[3] = molecular target: T2, Protein cereblon/Bromodomain-containing protein 2 (Homo sapiens, UniProt P25440+Q96SW2); test: Protac activity at CRBN/BRD2 in human HeLa cells assessed as BRD2 degradation measured after 36 hrs by Western blot analysis relative to control; format: cell-based
Target sequence in this assay (P25440 whole entry, looked up): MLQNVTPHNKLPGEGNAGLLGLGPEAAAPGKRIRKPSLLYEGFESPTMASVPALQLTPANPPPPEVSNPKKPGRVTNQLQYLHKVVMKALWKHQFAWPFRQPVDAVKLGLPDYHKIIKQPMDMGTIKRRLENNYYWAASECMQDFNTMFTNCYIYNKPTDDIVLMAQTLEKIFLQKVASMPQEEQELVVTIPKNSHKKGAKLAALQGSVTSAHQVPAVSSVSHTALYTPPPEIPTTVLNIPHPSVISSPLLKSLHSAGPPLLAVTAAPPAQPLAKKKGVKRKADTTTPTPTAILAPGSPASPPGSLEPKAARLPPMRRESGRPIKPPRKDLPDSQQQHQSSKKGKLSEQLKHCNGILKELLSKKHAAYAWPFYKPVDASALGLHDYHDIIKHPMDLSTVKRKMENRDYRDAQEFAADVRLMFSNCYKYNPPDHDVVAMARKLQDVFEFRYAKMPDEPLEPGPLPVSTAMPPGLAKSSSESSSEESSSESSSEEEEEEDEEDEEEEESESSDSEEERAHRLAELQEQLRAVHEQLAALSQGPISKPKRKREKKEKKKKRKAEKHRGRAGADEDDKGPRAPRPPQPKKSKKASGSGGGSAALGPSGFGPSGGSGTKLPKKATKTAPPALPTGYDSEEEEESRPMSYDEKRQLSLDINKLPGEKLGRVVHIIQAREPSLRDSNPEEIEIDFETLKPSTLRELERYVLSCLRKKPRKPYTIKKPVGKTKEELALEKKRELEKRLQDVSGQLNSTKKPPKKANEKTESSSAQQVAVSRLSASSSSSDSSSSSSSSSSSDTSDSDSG
Target sequence in this assay (Q96SW2 whole entry, looked up): as the sequence (Q96SW2 whole entry, looked up, other chains not shown) above

[4] = tested on: CWR22R; test: Down regulation of XIAP mRNA expression in human 22Rv1 cells at 20 to 100 nM measured after 36 hrs by RT-qPCR analysis; format: functional, cell-based; settings: dose 20-100 nM
[5] = molecular target: T3, Protein cereblon/Serine/threonine-protein kinase PLK1 (Homo sapiens, UniProt P53350+Q96SW2); test: Protac activity at CRBN/PLK1 in human 22Rv1 cells assessed as PLK1 degradation at 50 nM measured after 24 hrs by Western blot analysis; format: cell-based
Target sequence in this assay (P53350 2-603 limits assumed): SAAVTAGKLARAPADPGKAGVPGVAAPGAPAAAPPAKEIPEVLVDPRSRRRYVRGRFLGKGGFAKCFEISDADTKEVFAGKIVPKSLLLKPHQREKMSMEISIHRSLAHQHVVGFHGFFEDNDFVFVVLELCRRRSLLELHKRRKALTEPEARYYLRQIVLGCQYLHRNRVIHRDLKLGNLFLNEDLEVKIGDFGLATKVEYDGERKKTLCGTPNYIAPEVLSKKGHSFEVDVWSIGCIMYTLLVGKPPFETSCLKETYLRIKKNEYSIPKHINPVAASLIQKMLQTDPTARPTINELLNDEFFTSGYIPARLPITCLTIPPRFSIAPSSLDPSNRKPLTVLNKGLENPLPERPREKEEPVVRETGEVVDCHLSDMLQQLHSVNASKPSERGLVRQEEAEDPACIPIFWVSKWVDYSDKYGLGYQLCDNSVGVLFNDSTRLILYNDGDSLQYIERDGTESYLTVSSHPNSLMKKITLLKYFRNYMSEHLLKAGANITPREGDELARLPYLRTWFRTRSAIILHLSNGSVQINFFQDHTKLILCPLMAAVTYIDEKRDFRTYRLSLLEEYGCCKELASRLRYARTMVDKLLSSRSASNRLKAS
Target sequence in this assay (Q96SW2 whole entry partner): as the sequence (Q96SW2 whole entry, looked up, other chains not shown) above

[6] = tested on: CWR22R; test: Cytotoxicity against human 22Rv1 cells assessed as reduction in cell viability measured after 3 days by CCK-8 assay; format: functional, cell-based; settings: 22Rv1, 72 h
[7] = molecular target: T3, Protein cereblon/Serine/threonine-protein kinase PLK1; test: Protac activity at CRBN/PLK1 in human 22Rv1 cells assessed as PLK1 degradation measured after 36 hrs by Western blot analysis; format: cell-based
[8] = molecular target: T4, Protein cereblon/Bromodomain-containing protein 3 (Homo sapiens, UniProt Q15059+Q96SW2); test: Protac activity at CRBN/BRD3 in human HeLa cells assessed as BRD3 degradation measured after 36 hrs by Western blot analysis relative to control; format: cell-based
Target sequence in this assay (Q15059 2-726 limits assumed): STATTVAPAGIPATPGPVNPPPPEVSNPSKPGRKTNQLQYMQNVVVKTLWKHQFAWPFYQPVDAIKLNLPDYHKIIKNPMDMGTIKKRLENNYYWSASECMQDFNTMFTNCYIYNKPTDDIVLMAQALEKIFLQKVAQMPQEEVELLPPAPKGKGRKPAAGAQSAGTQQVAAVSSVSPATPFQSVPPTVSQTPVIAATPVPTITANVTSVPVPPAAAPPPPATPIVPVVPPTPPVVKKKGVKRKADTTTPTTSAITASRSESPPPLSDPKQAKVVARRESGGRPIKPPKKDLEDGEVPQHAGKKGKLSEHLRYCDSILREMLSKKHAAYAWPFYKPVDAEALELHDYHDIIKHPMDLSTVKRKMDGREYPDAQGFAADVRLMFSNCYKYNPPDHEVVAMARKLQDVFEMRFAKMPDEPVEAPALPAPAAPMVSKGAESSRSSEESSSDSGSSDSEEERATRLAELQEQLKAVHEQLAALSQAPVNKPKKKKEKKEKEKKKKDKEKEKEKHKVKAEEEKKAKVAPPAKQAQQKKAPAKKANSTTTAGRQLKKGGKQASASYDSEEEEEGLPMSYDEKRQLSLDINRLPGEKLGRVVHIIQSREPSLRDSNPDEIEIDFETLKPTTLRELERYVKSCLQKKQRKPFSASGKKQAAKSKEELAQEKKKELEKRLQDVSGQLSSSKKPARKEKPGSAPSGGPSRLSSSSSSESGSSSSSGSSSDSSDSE
Target sequence in this assay (Q96SW2 whole entry partner): as the sequence (Q96SW2 whole entry, looked up, other chains not shown) above

[9] = molecular target: T3, Protein cereblon/Serine/threonine-protein kinase PLK1; test: Protac activity at CRBN/PLK1 in human HeLa cells assessed as PLK1 degradation at 10 to 500 nM measured after 36 hrs by Western blot analysis; format: cell-based; settings: dose 10-500 nM
Target sequence in this assay (P53350 2-603 limits assumed): as the sequence (P53350 2-603 limits assumed) above
Target sequence in this assay (Q96SW2 whole entry partner): as the sequence (Q96SW2 whole entry, looked up, other chains not shown) above

[10] = tested on: CWR22R; test: Down regulation of Bcl-2 mRNA expression in human 22Rv1 cells at 20 to 100 nM measured after 36 hrs by RT-qPCR analysis; format: functional, cell-based; settings: dose 20-100 nM
[11] = tested on: CWR22R; test: Effect on P21 mRNA expression in human 22Rv1 cells at 20 to 100 nM measured after 36 hrs by RT-qPCR analysis; format: functional, cell-based; settings: dose 20-100 nM
[12] = molecular target: T1, Protein cereblon/Bromodomain-containing protein 4; test: Protac activity at CRBN/BRD4 in human MDA-MB-231 cells assessed as BRD4 degradation at 10 nM measured after 36 hrs by Western blot analysis; format: cell-based
[13] = molecular target: T4, Protein cereblon/Bromodomain-containing protein 3; test: Protac activity at CRBN/BRD3 in human HeLa cells assessed as BRD3 degradation at 3 nM measured after 36 hrs by Western blot analysis; format: cell-based
Target sequence in this assay (Q15059 2-726 limits assumed): as the sequence (Q15059 2-726 limits assumed) above
Target sequence in this assay (Q96SW2 whole entry partner): as the sequence (Q96SW2 whole entry, looked up, other chains not shown) above

[14] = molecular target: T2, Protein cereblon/Bromodomain-containing protein 2; test: Protac activity at CRBN/BRD2 in human 22Rv1 cells assessed as BRD2 degradation measured after 36 hrs by Western blot analysis relative to control; format: cell-based
Target sequence in this assay (P25440 whole entry, looked up): as the sequence (P25440 whole entry, looked up) above
Target sequence in this assay (Q96SW2 whole entry, looked up): as the sequence (Q96SW2 whole entry, looked up, other chains not shown) above

[15] = molecular target: T1, Protein cereblon/Bromodomain-containing protein 4; test: Protac activity at CRBN/BRD4 in human HeLa cells assessed as BRD4 degradation at 500 nM measured after 12 hrs by Western blot analysis; format: cell-based
[16] = molecular target: T3, Protein cereblon/Serine/threonine-protein kinase PLK1; test: Protac activity at CRBN/PLK1 in human 22Rv1 cells assessed as PLK1 degradation at 10 to 500 nM measured after 36 hrs by Western blot analysis; format: cell-based; settings: dose 10-500 nM
Target sequence in this assay (P53350 2-603 limits assumed): as the sequence (P53350 2-603 limits assumed) above
Target sequence in this assay (Q96SW2 whole entry partner): as the sequence (Q96SW2 whole entry, looked up, other chains not shown) above

[17] = tested on: MDA-MB-231; test: Cytotoxicity against human MDA-MB-231 cells assessed as reduction in cell viability measured after 3 days by CCK-8 assay; format: functional, cell-based; settings: MDA-MB-231, 72 h
[18] = molecular target: T3, Protein cereblon/Serine/threonine-protein kinase PLK1; test: Protac activity at CRBN/PLK1 in human HeLa cells assessed as PLK1 degradation measured after 36 hrs by Western blot analysis relative to control; format: cell-based
Target sequence in this assay (P53350 2-603 limits assumed): as the sequence (P53350 2-603 limits assumed) above
Target sequence in this assay (Q96SW2 whole entry partner): as the sequence (Q96SW2 whole entry, looked up, other chains not shown) above

[19] = molecular target: T1, Protein cereblon/Bromodomain-containing protein 4; test: Protac activity at CRBN/BRD4 in human 22Rv1 cells assessed as BRD4 degradation at 50 nM measured after 2 hrs by Western blot analysis; format: cell-based
[20] = tested on: CWR22R; test: Down regulation of PRDM1 mRNA expression in human 22Rv1 cells at 20 to 100 nM measured after 36 hrs by RT-qPCR analysis; format: functional, cell-based; settings: dose 20-100 nM
[21] = molecular target: T3, Protein cereblon/Serine/threonine-protein kinase PLK1; test: Protac activity at CRBN/PLK1 in human MDA-MB-231 cells assessed as PLK1 degradation at 10 nM measured after 36 hrs by Western blot analysis; format: cell-based
Target sequence in this assay (P53350 2-603 limits assumed): as the sequence (P53350 2-603 limits assumed) above
Target sequence in this assay (Q96SW2 whole entry partner): as the sequence (Q96SW2 whole entry, looked up, other chains not shown) above

[22] = molecular target: T1, Protein cereblon/Bromodomain-containing protein 4; test: Protac activity at CRBN/BRD4 in human 22Rv1 cells assessed as BRD4 degradation measured after 36 hrs by Western blot analysis; format: cell-based
[23] = molecular target: T3, Protein cereblon/Serine/threonine-protein kinase PLK1; test: Protac activity at CRBN/PLK1 in human HeLa cells assessed as PLK1 degradation at 500 nM measured after 36 hrs by Western blot analysis; format: cell-based
Target sequence in this assay (P53350 2-603 limits assumed): as the sequence (P53350 2-603 limits assumed) above
Target sequence in this assay (Q96SW2 whole entry partner): as the sequence (Q96SW2 whole entry, looked up, other chains not shown) above

[24] = molecular target: T4, Protein cereblon/Bromodomain-containing protein 3; test: Protac activity at CRBN/BRD3 in human 22Rv1 cells assessed as BRD3 degradation measured after 36 hrs by Western blot analysis relative to control; format: cell-based
Target sequence in this assay (Q15059 2-726 limits assumed): as the sequence (Q15059 2-726 limits assumed) above
Target sequence in this assay (Q96SW2 whole entry partner): as the sequence (Q96SW2 whole entry, looked up, other chains not shown) above

[25] = molecular target: T3, Protein cereblon/Serine/threonine-protein kinase PLK1; test: Protac activity at CRBN/PLK1 in human HeLa cells assessed as PLK1 degradation at 10 nM measured after 36 hrs by Western blot analysis; format: cell-based
[26] = molecular target: T4, Protein cereblon/Bromodomain-containing protein 3; test: Protac activity at CRBN/BRD3 in human HeLa cells assessed as BRD3 degradation measured after 36 hrs by Western blot analysis; format: cell-based
[27] = molecular target: T3, Protein cereblon/Serine/threonine-protein kinase PLK1; test: Protac activity at CRBN/PLK1 in human HeLa cells assessed as PLK1 degradation at 200 nM measured after 24 hrs by Western blot analysis; format: cell-based
[28] = molecular target: T3, Protein cereblon/Serine/threonine-protein kinase PLK1; test: Protac activity at CRBN/PLK1 in human 22Rv1 cells assessed as PLK1 degradation at 2 uM measured after 12 to 24 hrs by Western blot analysis; format: cell-based; settings: time 12-24 hrs
[29] = molecular target: T1, Protein cereblon/Bromodomain-containing protein 4; test: Protac activity at CRBN/BRD4 in human 22Rv1 cells assessed as BRD4 degradation measured after 36 hrs by Western blot analysis relative to control; format: cell-based
[30] = tested on: HeLa; test: Cytotoxicity against human HeLa cells assessed as reduction in cell viability measured after 3 days by CCK-8 assay; format: functional, cell-based; settings: 72 h
[31] = molecular target: T3, Protein cereblon/Serine/threonine-protein kinase PLK1; test: Protac activity at CRBN/PLK1 in human 22Rv1 cells assessed as PLK1 degradation measured after 36 hrs by Western blot analysis relative to control; format: cell-based
[32] = molecular target: T2, Protein cereblon/Bromodomain-containing protein 2; test: Protac activity at CRBN/BRD2 in human HeLa cells assessed as BRD2 degradation at 3 nM measured after 36 hrs by Western blot analysis; format: cell-based
Target sequence in this assay (P25440 whole entry, looked up): as the sequence (P25440 whole entry, looked up) above
Target sequence in this assay (Q96SW2 whole entry, looked up): as the sequence (Q96SW2 whole entry, looked up, other chains not shown) above

[33] = molecular target: T2, Protein cereblon/Bromodomain-containing protein 2; test: Protac activity at CRBN/BRD2 in human 22Rv1 cells assessed as BRD2 degradation measured after 36 hrs by Western blot analysis; format: cell-based
[34] = molecular target: T1, Protein cereblon/Bromodomain-containing protein 4; test: Protac activity at CRBN/BRD4 in human K562 cells assessed as BRD4 degradation at 10 nM measured after 36 hrs by Western blot analysis; format: cell-based
[35] = tested on: K562; test: Cytotoxicity against human K562 cells assessed as reduction in cell viability measured after 3 days by CCK-8 assay; format: functional, cell-based; settings: K562, 72 h
[36] = molecular target: T1, Protein cereblon/Bromodomain-containing protein 4; test: Protac activity at CRBN/BRD4 in human 22Rv1 cells assessed as BRD4 degradation at 50 nM measured after 4 hrs by Western blot analysis; format: cell-based
[37] = molecular target: T4, Protein cereblon/Bromodomain-containing protein 3; test: Protac activity at CRBN/BRD3 in human 22Rv1 cells assessed as BRD3 degradation measured after 36 hrs by Western blot analysis; format: cell-based
[38] = molecular target: T1, Protein cereblon/Bromodomain-containing protein 4; test: Protac activity at CRBN/BRD4 in human HeLa cells assessed as BRD4 degradation measured after 36 hrs by Western blot analysis; format: cell-based
[39] = molecular target: T1, Protein cereblon/Bromodomain-containing protein 4; test: Protac activity at CRBN/BRD4 in human HeLa cells assessed as BRD4 degradation at 20 nM measured after 24 hrs by Western blot analysis; format: cell-based
[40] = molecular target: T3, Protein cereblon/Serine/threonine-protein kinase PLK1; test: Protac activity at CRBN/PLK1 in human 22Rv1 cells assessed as PLK1 degradation at 50 nM measured after 36 hrs by Western blot analysis; format: cell-based
[41] = molecular target: T1, Protein cereblon/Bromodomain-containing protein 4; test: Protac activity at CRBN/BRD4 in human HeLa cells assessed as BRD4 degradation at 3 nM measured after 36 hrs by Western blot analysis; format: cell-based
[42] = molecular target: T3, Protein cereblon/Serine/threonine-protein kinase PLK1; test: Protac activity at CRBN/PLK1 in human K562 cells assessed as PLK1 degradation at 10 nM measured after 36 hrs by Western blot analysis; format: cell-based
[43] = molecular target: T3, Protein cereblon/Serine/threonine-protein kinase PLK1; test: Protac activity at CRBN/PLK1 in human HeLa cells assessed as PLK1 degradation measured after 36 hrs by Western blot analysis; format: cell-based
[44] = tested on: CWR22R; test: Antiproliferative activity against human 22Rv1 cells assessed as reduction in cell viability up to 100000 nM incubated for 24 hrs prior to compound washout measured after 1 week by crystal violet staining based assay; format: functional
[45] = molecular target: T2, Protein cereblon/Bromodomain-containing protein 2; test: Protac activity at CRBN/BRD2 in human HeLa cells assessed as BRD2 degradation measured after 36 hrs by Western blot analysis; format: cell-based
[46] = molecular target: T3, Protein cereblon/Serine/threonine-protein kinase PLK1; test: Protac activity at CRBN/PLK1 in human HeLa cells assessed as PLK1 degradation at 500 nM measured after 12 hrs by Western blot analysis; format: cell-based
[47] = molecular target: T1, Protein cereblon/Bromodomain-containing protein 4; test: Protac activity at CRBN/BRD4 in human 22Rv1 cells assessed as down regulation of MYC gene expression at 20 to 100 nM measured after 36 hrs by RT-qPCR analysis; format: cell-based; settings: dose 20-100 nM

Activity [1]: 93.4%
Activity [2]: Active
Activity [3]: 82.8%
DC50 [7]: 4.68 nM
Activity [8]: 93.3%
Activity [12]: Active
Activity [13]: Active
Activity [14]: 91.5%
Activity [15]: 95%
Activity [18]: 78.6%
Activity [21]: Active
DC50 [22]: 1.56 nM
Activity [23]: 92%
Activity [24]: 89.9%
Activity [25]: Active
DC50 [26]: 1.74 nM
Activity [27]: Active; Moderate Effect Observed
Activity [28]: Active
Activity [29]: 96.5%
Activity [31]: 78%
Activity [32]: Active
DC50 [33]: 1.63 nM
Activity [34]: Active
DC50 [37]: 9.45 nM
DC50 [38]: 1.03 nM
Activity [40]: Active; Profound Degradation Observed
Activity [41]: Active
Activity [42]: Active
DC50 [43]: 1.64 nM
DC50 [45]: 6.45 nM
Activity [46]: 28%
Compound: CC[C@@H]1C(=O)N(C)c2cnc(Nc3ccc(C(=O)NC4CCN(CCCCCCCC(=O)Nc5cccc6c5C(=O)N(C5CCC(=O)NC5=O)C6=O)CC4)cc3OC)nc2N1C1CCCC1 (some centres not stated)
Activity [4]: Active
Activity [5]: Not active; No Significant Effect Observed
IC50 [6]: 45 nM
Activity [9]: Active; Higher Degradation Observed At 36 Hrs
Activity [10]: Active
Activity [11]: inactive
Activity [16]: Active; Higher Degradation Observed At 36 Hrs
IC50 [17]: 274 nM
Activity [19]: Active; Effectively Reduced The Protein Level
Activity [20]: Active
IC50 [30]: 44 nM
IC50 [35]: 52 nM
Activity [36]: Active; Near-Complete Depletion Of Brd4 Observed
Activity [39]: Active; Demonstrated Most Potent Efficacy
Activity [44]: Active; Antiproliferative Effect Was Enhanced Even After 1 Week
Activity [47]: Active; Nearly Complete Down Regulation Observed At 20 Nm
